Measurements: patent US8952024B2, “Herbicidal pyrimidone derivatives” (E I du Pont de Nemours and Company, priority 2009, dated 2015)

tested on: velvetleaf (Abutilon theophrasti); assay: Test A pre-/postemergence plant response; type: in vivo; conditions: Preemergence, 125 g ai/ha; 0 to 100 scale, 0 = no effect, 100 = complete control
Outline: (§1)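 Pre: directed soil spray on seeded loam/sand blend. Post: same formulation (non-phytotoxic solvent + surfactant) on 2–10 cm plants, 1–2 leaf stage. Greenhouse ~10 d; visual injury score 0–100 vs untreated.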

Row | Compound | Plant response rating, Velvetleaf
1 | O=C1CCCC(O)=C1C(=O)c1cnc(-c2ccccc2Br)n(-c2ccccc2)c1=O [Compound 71] | 50

same assay, conditions: Preemergence, 500 g ai/ha; visual injury, 0 to 100 scale (0 no effect, 100 complete control), approx. ten days

Row | Compound | Plant response rating, Velvetleaf
2 | O=C1CCCC(O)=C1C(=O)c1cnc(-c2ccccc2Br)n(-c2ccccc2)c1=O [Compound 71] | 70

tested on: wheat (Triticum aestivum); assay: Test A pre-/postemergence plant response; type: in vivo; conditions: Postemergence, 125 g ai/ha; visual injury, 0 to 100 scale (0 no effect, 100 complete control), approx. ten days
Outline: as §1

Row | Compound | Wheat plant response rating
3 | O=C1CCCC(O)=C1C(=O)c1cnc(-c2ccccc2Br)n(-c2ccccc2)c1=O [Compound 71] | 0

same assay, conditions: Postemergence, 500 g ai/ha; 0 to 100 scale, 0 = no effect, 100 = complete control; approx. ten days

Row | Compound | Plant response rating, Wheat
4 | O=C1CCCC(O)=C1C(=O)c1cnc(-c2ccccc2Br)n(-c2ccccc2)c1=O [Compound 71] | 0

same assay, conditions: Preemergence, 125 g ai/ha; 0 to 100 scale, 0 = no effect, 100 = complete control

Row | Compound | Plant response rating, Wheat
5 | O=C1CCCC(O)=C1C(=O)c1cnc(-c2ccccc2Br)n(-c2ccccc2)c1=O [Compound 71] | 0

same assay, conditions: Preemergence, 500 g ai/ha; visual injury, 0 to 100 scale (0 no effect, 100 complete control), approx. ten days

Row | Compound | Plant response rating, Wheat
6 | O=C1CCCC(O)=C1C(=O)c1cnc(-c2ccccc2Br)n(-c2ccccc2)c1=O [Compound 71] | 0

tested on: winter barley (Hordeum vulgare); assay: Test B postemergence plant response; type: in vivo; conditions: 31 g ai/ha, postemergence; scale 0 to 100, 0 is no effect, 100 is complete control
Outline: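 Visual ratings from 0 (no effect) to 100 (complete control), made against controls 13–15 days after treatment, kept in a greenhouse. Compounds were applied postemergence to potted plants at the 1- to 4-leaf stage (2–18 cm).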

Row | Compound | Plant response rating, Barley
7 | O=C1CCCC(O)=C1C(=O)c1cnc(-c2ccccc2Br)n(-c2ccccc2)c1=O [Compound 71] | 0

same assay, conditions: 62 g ai/ha, postemergence; 0 is no effect, 100 is complete control; 13 to 15 days

Row | Compound | Barley plant response rating (0 to 100 scale)
8 | O=C1CCCC(O)=C1C(=O)c1cnc(-c2ccccc2Br)n(-c2ccccc2)c1=O [Compound 71] | 0

same assay, conditions: Postemergence, 125 g ai/ha; visual rating after 13 to 15 days, scale 0 (no effect) to 100 (complete control)

Row | Compound | Plant response rating, Barley
9 | O=C1CCCC(O)=C1C(=O)c1cnc(-c2ccccc2Br)n(-c2ccccc2)c1=O [Compound 71] | 0

same assay, conditions: Postemergence, 250 g ai/ha; scale 0 to 100 (0 no effect, 100 complete control)

Row | Compound | Plant response rating, Barley
10 | O=C1CCCC(O)=C1C(=O)c1cnc(-c2ccccc2Br)n(-c2ccccc2)c1=O [Compound 71] | 5

tested on: barnyardgrass (Echinochloa crus-galli); assay: Test B flooded paddy test; type: in vivo; conditions: 250 g ai/ha; flooded paddy test; visual rating on 0 to 100 scale (0 no effect, 100 complete control) after 13 to 15 days
Outline: (§2)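 Ratings are visual, 0–100 (100 = complete control), taken versus untreated controls 13 to 15 days after treatment in the greenhouse. Compound went straight into paddy water held 3 cm above soil, applied to 2-leaf-stage plants of four species.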

Row | Compound | Plant response rating, Flood, Barnyardgrass
11 | O=C1CCCC(O)=C1C(=O)c1cnc(-c2ccccc2Br)n(-c2ccccc2)c1=O [Compound 71] | 0

same assay, conditions: Flood (flooded paddy test), 62 g ai/ha; scale of 0 to 100 where 0 is no effect and 100 is complete control; 13 to 15 days

Row | Compound | Plant response rating, Barnyardgrass
12 | O=C1CCCC(O)=C1C(=O)c1cnc(-c2ccccc2Br)n(-c2ccccc2)c1=O [Compound 71] | 0

same assay, conditions: Flood (flooded paddy test), 125 g ai/ha; scale 0 to 100, 0 is no effect, 100 is complete control; 13 to 15 days

Row | Compound | Plant response rating, Barnyardgrass
13 | O=C1CCCC(O)=C1C(=O)c1cnc(-c2ccccc2Br)n(-c2ccccc2)c1=O [Compound 71] | 0

same assay, conditions: Flood, 31 g ai/ha; scale 0 to 100 (0 no effect, 100 complete control)

Row | Compound | Barnyardgrass plant response rating
14 | O=C1CCCC(O)=C1C(=O)c1cnc(-c2ccccc2Br)n(-c2ccccc2)c1=O [Compound 71] | 0

tested on: ducksalad (Heteranthera limosa); assay: Test B flooded paddy test; type: in vivo; conditions: 250 g ai/ha; flooded paddy test; visual rating on 0 to 100 scale (0 no effect, 100 complete control) after 13 to 15 days
Outline: as §2

Row | Compound | Plant response rating, Flood, Ducksalad
15 | O=C1CCCC(O)=C1C(=O)c1cnc(-c2ccccc2Br)n(-c2ccccc2)c1=O [Compound 71] | 0

same assay, conditions: Flood (flooded paddy test), 62 g ai/ha; scale of 0 to 100 where 0 is no effect and 100 is complete control; 13 to 15 days

Row | Compound | Plant response rating, Ducksalad
16 | O=C1CCCC(O)=C1C(=O)c1cnc(-c2ccccc2Br)n(-c2ccccc2)c1=O [Compound 71] | 0

same assay, conditions: Flood (flooded paddy test), 125 g ai/ha; scale 0 to 100, 0 is no effect, 100 is complete control; 13 to 15 days

Row | Compound | Plant response rating, Ducksalad
17 | O=C1CCCC(O)=C1C(=O)c1cnc(-c2ccccc2Br)n(-c2ccccc2)c1=O [Compound 71] | 0

same assay, conditions: Flood, 31 g ai/ha; scale 0 to 100 (0 no effect, 100 complete control)

Row | Compound | Ducksalad plant response rating
18 | O=C1CCCC(O)=C1C(=O)c1cnc(-c2ccccc2Br)n(-c2ccccc2)c1=O [Compound 71] | 0

tested on: rice (Oryza sativa); assay: Test B flooded paddy test; type: in vivo; conditions: 250 g ai/ha; flooded paddy test; visual rating on 0 to 100 scale (0 no effect, 100 complete control) after 13 to 15 days
Outline: as §2

Row | Compound | Plant response rating, Flood, Rice
19 | O=C1CCCC(O)=C1C(=O)c1cnc(-c2ccccc2Br)n(-c2ccccc2)c1=O [Compound 71] | 0

same assay, conditions: Flood (flooded paddy test), 62 g ai/ha; scale of 0 to 100 where 0 is no effect and 100 is complete control; 13 to 15 days

Row | Compound | Plant response rating, Rice
20 | O=C1CCCC(O)=C1C(=O)c1cnc(-c2ccccc2Br)n(-c2ccccc2)c1=O [Compound 71] | 0

same assay, conditions: Flood (flooded paddy test), 125 g ai/ha; scale 0 to 100, 0 is no effect, 100 is complete control; 13 to 15 days

Row | Compound | Plant response rating, Rice
21 | O=C1CCCC(O)=C1C(=O)c1cnc(-c2ccccc2Br)n(-c2ccccc2)c1=O [Compound 71] | 0

same assay, conditions: Flood, 31 g ai/ha; scale 0 to 100 (0 no effect, 100 complete control)

Row | Compound | Rice plant response rating
22 | O=C1CCCC(O)=C1C(=O)c1cnc(-c2ccccc2Br)n(-c2ccccc2)c1=O [Compound 71] | 0

tested on: umbrella sedge (Cyperus difformis); assay: Test B flooded paddy test; type: in vivo; conditions: 250 g ai/ha; flooded paddy test; visual rating on 0 to 100 scale (0 no effect, 100 complete control) after 13 to 15 days
Outline: as §2

Row | Compound | Plant response rating, Flood, Sedge, Umbrella
23 | O=C1CCCC(O)=C1C(=O)c1cnc(-c2ccccc2Br)n(-c2ccccc2)c1=O [Compound 71] | 25

same assay, conditions: Flood (flooded paddy test), 62 g ai/ha; scale of 0 to 100 where 0 is no effect and 100 is complete control; 13 to 15 days

Row | Compound | Plant response rating, Sedge, Umbrella
24 | O=C1CCCC(O)=C1C(=O)c1cnc(-c2ccccc2Br)n(-c2ccccc2)c1=O [Compound 71] | 0

same assay, conditions: Flood (flooded paddy test), 125 g ai/ha; scale 0 to 100, 0 is no effect, 100 is complete control; 13 to 15 days

Row | Compound | Plant response rating, Sedge, Umbrella
25 | O=C1CCCC(O)=C1C(=O)c1cnc(-c2ccccc2Br)n(-c2ccccc2)c1=O [Compound 71] | 0

same assay, conditions: Flood, 31 g ai/ha; scale 0 to 100 (0 no effect, 100 complete control)

Row | Compound | Sedge, Umbrella plant response rating
26 | O=C1CCCC(O)=C1C(=O)c1cnc(-c2ccccc2Br)n(-c2ccccc2)c1=O [Compound 71] | 0
